Each structure is given as a SMILES string.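 Cultured in 96-well plates, cells were exposed to test compound for 48 hours across five concentrations. GI50: concentration for 50% inhibition of growth. The concentration for full growth arrest is given as TGI.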 Bounds are passed on as bounds.

Test systems include A498 renal; CAKI-1 renal; DU-145 prostate; EKVX NSCLC; HS 578T breast; KM12 colon; NCI-H226 lung; SF-539 CNS; SK-MEL-2 melanoma; UACC-257 melanoma.
Common to all, as to experiment: growth of human tumour cells (NCI), 48 h

For the molecule `CC/C=C\C[C@H]1C/C=C2/C(=O)C=C[C@@H]2C/C=C\CCCC(=O)O1`, the GI50 with A498 renal was 1.82 µM; with CAKI-1 renal it was 1.05 µM; with DU-145 prostate it was 0.816 µM; in the test with EKVX NSCLC, 2.04 µM; in the test on HS 578T breast, 4.34 µM; with KM12 colon, 0.94 µM. Moreover, the GI50 is 1.94 µM with NCI-H226 lung, 0.855 µM in the test on SF-539 CNS, 1.86 µM with SK-MEL-2 melanoma and 1.78 µM in the test with UACC-257 melanoma. The TGI came out at 3.35 µM with A498 renal; 8.98 µM in the test on CAKI-1 renal; 5.79 µM in the test with DU-145 prostate; 5.89 µM with EKVX NSCLC; 38.1 µM in the test on HS 578T breast; 4.44 µM in the test on KM12 colon. Further, the TGI turned out to be 4.75 µM with NCI-H226 lung, 2.67 µM in the test with SF-539 CNS, 4.87 µM with SK-MEL-2 melanoma and 5.23 µM in the test on UACC-257 melanoma.

With `O=C(O)C1C(Br)(c2ccccc2)C1(Br)c1ccccc1` (stereo not drawn), the TGI with A498 renal is 83.8 µM; in the test with CAKI-1 renal, 81.9 µM; in the test on DU-145 prostate, more than 100 µM; in the test with EKVX NSCLC it was more than 100 µM; in the test with HS 578T breast, more than 100 µM; in the test on KM12 colon it was more than 100 µM. The TGI is more than 100 µM in the test on NCI-H226 lung, more than 100 µM with SF-539 CNS, 80.2 µM with SK-MEL-2 melanoma and more than 100 µM in the test on UACC-257 melanoma.

Take `ClCc1cccc(Cn2cnc3nc(Cl)nc(Cl)c32)c1`: the GI50 in the test on A498 renal was 1.52 µM; with CAKI-1 renal it was 1.89 µM; in the test with DU-145 prostate, 0.141 µM; in the test on EKVX NSCLC it was 0.84 µM; in the test with HS 578T breast, 0.43 µM; in the test on KM12 colon, 16.7 µM. For the same molecule, the GI50 with NCI-H226 lung was 1.04 µM; with SF-539 CNS, 0.189 µM; in the test with SK-MEL-2 melanoma, 1.78 µM; in the test with UACC-257 melanoma it was 2.48 µM. Also, the TGI came out at 2.9 µM with A498 renal; 3.4 µM in the test with CAKI-1 renal; 0.271 µM with DU-145 prostate; 2.2 µM in the test with EKVX NSCLC; 2.51 µM with HS 578T breast; 35.4 µM in the test on KM12 colon. In addition, the TGI is 3.54 µM in the test with NCI-H226 lung, 0.496 µM with SF-539 CNS, 3.74 µM in the test on SK-MEL-2 melanoma and 7.35 µM with UACC-257 melanoma.

`COc1cc(C(=O)c2cc(C)c3[nH]c4ccc(C)cc4c3c2C)cc(OC)c1OC`: the GI50 in the test with A498 renal, in the test with CAKI-1 renal, in the test on DU-145 prostate, in the test on EKVX NSCLC, with HS 578T breast and with KM12 colon was less than 0.01 µM each time. The values for the GI50 in the test on NCI-H226 lung, in the test on SF-539 CNS and with UACC-257 melanoma were less than 0.01 µM, less than 0.01 µM and 4.5 µM, respectively. For the same molecule, the TGI was less than 0.01 µM in the test with A498 renal; more than 40.5 µM with CAKI-1 renal; more than 100 µM in the test with EKVX NSCLC; more than 100 µM in the test on HS 578T breast; more than 21.6 µM in the test with KM12 colon; more than 100 µM in the test on NCI-H226 lung. For the same molecule, the TGI in the test on SF-539 CNS was less than 0.01 µM; in the test with SK-MEL-2 melanoma, more than 100 µM; in the test on UACC-257 melanoma, more than 100 µM.

As for `CC1(C)[C@@H](OC(N)=O)[C@H]2O[C@H]2[C@]2(C=O)[C@H]3CC[C@]4(C)[C@@H](c5ccc(=O)oc5)[C@@H](Cl)C[C@]4(O)C3=CC[C@@H]12`, the GI50 with A498 renal was 0.00683 µM; with CAKI-1 renal, 0.00448 µM; with DU-145 prostate, 0.00437 µM; in the test with EKVX NSCLC it was 0.00472 µM; in the test with HS 578T breast, 0.00409 µM; in the test with KM12 colon it was 0.00806 µM. The GI50 was 0.00432 µM in the test on NCI-H226 lung, 0.00439 µM with SF-539 CNS, 0.02 µM in the test on SK-MEL-2 melanoma and 0.0059 µM with UACC-257 melanoma. For the same molecule, the TGI amounted to 0.0222 µM in the test with A498 renal; 0.00859 µM in the test with CAKI-1 renal; 0.00798 µM with DU-145 prostate; 0.0102 µM with EKVX NSCLC; 0.0192 µM in the test on HS 578T breast; 0.0253 µM in the test with KM12 colon. The TGI with NCI-H226 lung was 0.00811 µM; with SF-539 CNS it was 0.00833 µM; with SK-MEL-2 melanoma it was 0.0692 µM; in the test with UACC-257 melanoma it was 0.0164 µM.

On to `COc1ccc(CC2NCCc3cc(OC)c(OC)cc32)cc1Br` (stereo not drawn), for which the TGI was more than 79.1 µM in the test with A498 renal; more than 100 µM in the test on CAKI-1 renal; more than 100 µM with DU-145 prostate; more than 100 µM in the test with EKVX NSCLC; more than 100 µM with HS 578T breast; more than 100 µM with KM12 colon. The TGI in the test with NCI-H226 lung is 73.9 µM; with SF-539 CNS, more than 100 µM; in the test on SK-MEL-2 melanoma it was 61.6 µM; with UACC-257 melanoma it was 45.6 µM.

Regarding `ClCC[N+]12CC[N+](CCCl)(CC1)C2`, the TGI in the test on A498 renal, in the test with CAKI-1 renal, with DU-145 prostate, with EKVX NSCLC, in the test on HS 578T breast and in the test on KM12 colon was more than 100 µM throughout. Further, the TGI with NCI-H226 lung, in the test with SF-539 CNS, with SK-MEL-2 melanoma and in the test with UACC-257 melanoma was more than 100 µM in each case.

`O=C1CSC(c2ccc(Cl)cc2Cl)N1c1ccc(F)cc1` (stereo not drawn): the GI50 in the test with A498 renal was 15.9 µM; in the test with CAKI-1 renal, 24.9 µM; in the test on DU-145 prostate, 16.1 µM; in the test on EKVX NSCLC, 17.6 µM; in the test with HS 578T breast, 16.8 µM; in the test on KM12 colon, 15.6 µM. Moreover, the GI50 in the test with NCI-H226 lung is 18.2 µM; with SF-539 CNS, 19.2 µM; in the test on SK-MEL-2 melanoma, 18.9 µM; with UACC-257 melanoma, 20.1 µM. For the same molecule, the TGI in the test on A498 renal is 29.8 µM; with CAKI-1 renal it was 42.7 µM; with DU-145 prostate it was 29.6 µM; with EKVX NSCLC it was 34.8 µM; with HS 578T breast it was 39.9 µM; in the test on KM12 colon it was 29.8 µM. Further, the TGI was 38.2 µM with NCI-H226 lung, 33.4 µM in the test with SF-539 CNS, 38 µM in the test on SK-MEL-2 melanoma and 36.5 µM in the test on UACC-257 melanoma.

With `COc1c(CCl)cc(-c2cc(=O)c3ccccc3s2)cc1CCl`, the TGI was 90.7 µM in the test on A498 renal; more than 100 µM with CAKI-1 renal; more than 100 µM in the test with DU-145 prostate; more than 100 µM with EKVX NSCLC; 59.6 µM with HS 578T breast; more than 100 µM with KM12 colon. Besides, the TGI in the test with NCI-H226 lung is more than 31.6 µM; in the test with SF-539 CNS it was more than 42.3 µM; in the test with SK-MEL-2 melanoma it was more than 100 µM; in the test on UACC-257 melanoma, more than 100 µM.
